Like-named read-outs stand apart in the source and are kept apart here.
Columns and labels:
C26 tumour-bearing mice [1] = assay: Grip strength of forelimbs and hindlimbs; assay type: in vivo, Male Balb/c mice; conditions: day 16, KETrest & KETex vs CONrest & CONex, p<0.05
Procedure: Grip strength—Grip strength of both the forelimbs and the hindlimbs was evaluated, at baseline (day 5) and every 4 days starting at tumour induction, by means of a bar and a grid respectively, connected to an isometric force transducer (BIO-GS3 Grip Strength Test, BIOSEB, Pinellas Park, Florida). Mice were lifted by their tail and positioned to grasp the metal bar or grid, and were pulled horizontally until they could no longer hold the grip. Maximal force (g) was registered during five attempts for both the forelimbs and the hindlimbs. Performance was calculated as the average of the three best attempts. Between attempts the mice were returned to their home cage and given a rest period of 3 min.

[2] = Blood metabolite concentrations (βHB, glucose), 1-hr postprandial; assay type: in vivo, Male Balb/c mice; conditions: at all times
Procedure: Blood metabolite concentrations-Blood parameters were measured 1-hr postprandial, every 3 days during the food habituation period, and every 4 days from the day of tumour induction. Blood βHB and glucose levels were measured using the Glucomen Lx plus-meter (Menarini Diagnostics, Firenze, Italy) with Lx β-ketone or Lx glucose strips, respectively. The detection limits for p-hydroxybutyrate were 0.1 to 8.0 millimolar (mM). Blood lactate concentrations were assessed using the Lactate-[…] monitoring system (Arkray, Kyoto, Japan). Measurements were performed according to the manufacturer's instructions.

M. soleus = assay: Ex-vivo muscle contractile properties of M. soleus; assay type: in vivo, Male Balb/c mice; conditions: on average, KETrest & KETex vs CONrest & CONex, p<0.05
Procedure: Muscle contractile properties—Ex-vivo muscle contractile properties were assessed as described by Derave W et al; Skeletal muscle properties in a transgenic mouse model for amyotrophic lateral sclerosis: Effects of creatine treatment. Neurobiol Dis 13: 264-272, 2003 and Eijnde B O et al; Effect of muscle creatine content manipulation on contractile properties in mouse muscles. Muscle and Nerve 29: 428-435, 2004.
Mice were anesthetized by an intraperitoneal injection of ketamine-xylazine (10 mg/kg). After dissection of M. soleus and M. extensor digitorum longus (EDL) of both hindlimbs, muscles were mounted vertically on a force transducer (HSE, March-Hugstetten, Germany) and incubated in organ baths containing Krebs-Henseleit solution (118 mM NaCl, 25 mM NaHCO3, 5 mM KCl, 1 mM MgSO4, 1 mM KH2PO4, 2.5 mM CaCl2 and […]). […] Following recovery, resting length (L0) was determined with a micropositioner and an oscilloscope by stimulating the soleus and EDL tetanically for 350 ms at 80 Hz and 120 Hz, respectively, interspersed with 2-min rest intervals. […] Average maximal tension and specific tension (force corrected for muscle cross-sectional area) were calculated for both the twitch and tetanic stimulations. Cross-sectional area was determined by dividing the wet muscle mass by the product of resting muscle length (L0) and the density of mammalian skeletal muscle (1.06 g/cm^3).

C26 tumour-bearing mice [3] = assay: Survival experiment in C26 tumour-bearing mice on ketone-ester diet; assay type: in vivo, Male Balb/c mice; conditions: ketone groups (KETrest+KETex) vs control groups, 4.5% ketone ester diet, p<0.01
Procedure: Animal housing and husbandry—Male Balb/c mice were obtained at 11 weeks of age and housed in polycarbonate cages on a 6:00 am to 6:00 pm light cycle under controlled room temperature (21-23° C.) and humidity (40-60%). Mice were individually housed to allow assessment of individual energy intake and physical activity parameters. Cages contained spruce particles (Lignocel® BK 8/15) bedding, and were changed every three weeks. Enrichment was provided by two cotton pellets, which were replaced during cage changing. Mice received one wooden stick to allow correct wearing off of their teeth while on the liquid diets. Solid food was provided in a recess of the metal wire lid at the top of the cage, whilst liquid diets were provided on a daily basis by means of feeding tubes (Bio-Serv™, catalog #14-726-518). Water was provided by a centralized system with a metal dispenser extending into the cage. All procedures were approved by the Animal Ethics Committee of KU Leuven, Belgium (P093/2017). […]
General study protocol and dietary interventions—Mice were individually housed and received ad libitum access to standard chow (Ssniff® R/M-H, Soest, Germany) prior to the start of the study. Food intake was registered and body weight was measured daily for 5 days to assess their normal rate of food intake. […]

[4] = test system: murine colon carcinoma C26 cells; assay: Tumour weights, C26 tumour-xenografts; assay type: in vivo, Male Balb/c mice; conditions: 16 days after C26 inoculation, KET mice, p<0.05 vs CON, mean±SEM
Procedure: Tumour induction and exercise intervention—On day 12, tumour-xenografts were induced by interscapular injection of 5×10^5 murine colon carcinoma C26 cells dissolved in 100 μl of phosphate-buffered saline (PBS). C26 cell line was cultured in DMEM (Thermo Fisher Scientific, 41965-062) supplemented with 10% foetal bovine serum (FBS), 1% glutamine (Sigma G7513) and 1% penicillin and streptomycin. WT mice were injected with an identical volume of PBS. Twenty four hours before tumour inoculation, WR mice (CONex and KETex) received a running wheel to induce voluntary exercise, as previously reported in Coletti D et al;. Substrains of inbred mice differ in their physical activity as a behavior. Sci World J 2013: 1-7, 2013. Each wheel was supplied with a commercial cycling computer (2Cycle, 81488) to record physical activity parameters (i.e. running time, distance, and speed). Behavioural testing and tissue collection experiment—In a second experiment, 9 mice were included in each experimental group and used for behavioural testing and tissue collection. Mice were euthanized 16 days following PBS or tumour cells inoculation. Twenty-four hours before sacrifice the running wheels were removed to eliminate potential acute effects of exercise on variables measured.

C26 tumour-bearing mice [5] = assay: Muscle weights (TA, QUAD, GAS); assay type: in vivo, Male Balb/c mice
Text: Behavioural testing and tissue collection experiment—In a second experiment, 9 mice were included in each experimental group and used for behavioural testing and tissue collection. Mice were euthanized 16 days following PBS or tumour cells inoculation. Twenty-four hours before sacrifice the running wheels were removed to eliminate potential acute effects of exercise on variables measured.

C26 tumour-bearing mice [6] = assay: Voluntary wheel running activity; assay type: in vivo, Male Balb/c mice; conditions: KETex, wheel running on ketone ester diet, mean±SEM
Procedure: Tumour induction and exercise intervention—On day 12, tumour-xenografts were induced by interscapular injection of 5×10^5 murine colon carcinoma C26 cells dissolved in 100 μl of phosphate-buffered saline (PBS). C26 cell line was cultured in DMEM (Thermo Fisher Scientific, 41965-062) supplemented with 10% foetal bovine serum (FBS), 1% glutamine (Sigma G7513) and 1% penicillin and streptomycin. WT mice were injected with an identical volume of PBS. Twenty four hours before tumour inoculation, WR mice (CONex and KETex) received a running wheel to induce voluntary exercise, as previously reported in Coletti D et al;. Substrains of inbred mice differ in their physical activity as a behavior. Sci World J 2013: 1-7, 2013. Each wheel was supplied with a commercial cycling computer (2Cycle, 81488) to record physical activity parameters (i.e. running time, distance, and speed). Body weight, food intake and wheel running parameters—Body weight was measured every 3 days during the food training period. After tumour induction, body weight was measured at 4-day intervals. Food intake and wheel running parameters were measured daily. Statistical analysis—Data are presented as mean±SEM. […] Mice from the WT groups were not included in the 2-way ANOVA model, but were added as a reference. Differences in wheel running activity were assessed using an unpaired t-test. […]

[7] = Blood (R)-3-hydroxybutyrate after oral administration of ester
C26 tumour-bearing mice [8] = assay: Food intake and body weight of C26 tumour-bearing mice; assay type: in vivo, Male Balb/c mice; conditions: all experimental groups
Procedure: General study protocol and dietary interventions—Mice were individually housed and received ad libitum access to standard chow (Ssniff® R/M-H, Soest, Germany) prior to the start of the study. Food intake was registered and body weight was measured daily for 5 days to assess their normal rate of food intake. Following this baseline follow-up period, the mice were matched for body weight and food intake where after they were randomly assigned to five experimental groups: i) C26 tumour-bearing mice at rest on control diet (CONrest), ii) C26-bearing mice at rest on ketone diet (KETrest), iii) C26-bearing mice performing voluntary wheel running (WR) on control diet (CONex), iv) C26-bearing mice performing WR on ketone diet (KETex), and v) healthy mice at rest on control diet (WT). Mice were habituated to their experimental diet by a step-wise change of their food supply.
During the first three days, the mice received both their experimental liquid diet (without the addition of ketones) as well as standard chow. From day 3 to 6, mice received only their experimental liquid diets (i.e. 0% KET or CON diet). […]
Body weight, food intake and wheel running parameters—Body weight was measured every 3 days during the food training period. After tumour induction, body weight was measured at 4-day intervals. Food intake and wheel running parameters were measured daily.

[9] = test system: pancreatic cancer cachexia; conditions: high amounts of ketone salts; cited from earlier work
[10] = in vivo

With `C[C@@H](O)CCOC(=O)C[C@@H](C)O` [KET, (R)-3-hydroxybutyl-(R)-3-hydroxybutyrate] as the molecule, how does the “forelimb grip strength vs control groups” value (C26 tumour-bearing mice [1]) read?
The value was “higher”.

And the “hindlimb grip strength vs control groups” value (C26 tumour-bearing mice [1])?
Its value is “higher”.

What about the “blood glucose levels compared with CON groups” value [2] of the same molecule?
Its value is “lower”.

What about the “Peak twitch force of M. soleus higher than in control groups” value (M. soleus) of the same molecule?
The value was ~45%.

What about the “tetanic force of M. soleus higher than in control groups” value (M. soleus) of the same molecule?
The value was ~29%.

And the “increase in mean survival time compared to control groups” value (C26 tumour-bearing mice [3])?
Its value is “+40%”.

What about the “increase in median survival time compared to control groups” value (C26 tumour-bearing mice [3]) of the same molecule?
Its value is “+17%”.

What about the tumour weights [4] of the same molecule?
Its tumour weights is 204 ± 32 mg.

What about the “Tibialis anterior (TA) weight” value (C26 tumour-bearing mice [5]; KET, p<0.05 vs CON, mean±SEM) of the same molecule?
Its value is 41.6 ± 2.1 mg.

And the “gastrocnemius (GAS) weights between the groups” value (C26 tumour-bearing mice [5]; mouse, in vivo)?
Its value is “similar”.

What about the “TA weight higher in KET compared with CON” value (C26 tumour-bearing mice [5]; on average) of the same molecule?
The value was ~12%.

What about the Av distance/day (C26 tumour-bearing mice [6]) of the same molecule?
Its Av distance/day is 19.78 ± 1.36 km.

What about the Av running speed (C26 tumour-bearing mice [6]) of the same molecule?
The Av running speed was 2.94 ± 0.12 km/h.

And the “level of uptake in the gut” value ([7]; consumption of a drink)?
Its value is “surprisingly high”.

What about the “circulating levels of (R)-3-hydroxybutyrate in the blood” value ([7]; in vivo) of the same molecule?
Its value is “high”.

And the “period of raised (R)-3-hydroxybutyrate concentrations compared with ketone salts” value ([7]; in vivo)?
The value was “longer period”.

What about the “Body weight over time” value (C26 tumour-bearing mice [8]) of the same molecule?
Its value is “similarly decreased”.

Which results are given for `CC(=O)CC(=O)[O-].[Li+]` [lithium acetoacetate]?
muscle and body weight loss [9]: inhibition; tumour growth [9]: Reduced

Which “muscle and body weight loss” value [9] does the source give for `CC(O)CC(=O)[O-].[Na+]` (centres unmarked) [sodium hydroxybutyrate] here?
The value was “inhibition”.

What about the tumour growth [9] of the same molecule?
Its tumour growth is “Reduced”.

With “(R)-3-hydroxybutyrate-glycerol partial ester” as the molecule, how does the “circulating levels of (R)-3-hydroxybutyrate in the blood” value [10] read?
The value was “high”.

What about the “level of uptake in the gut” value [10] of the same molecule?
Its value is “surprisingly high”.

Source: patent US12226387B2, “Compounds for use in cancer cachexia” (priority 2018, dated 2025)
